Assay results published in patent publication US20120214862A1, “MODULATION OF FACTOR 7 EXPRESSION” (ISIS Pharmaceuticals, Inc., priority 2009, published 2012).
In the oligonucleotide strings, read from the 5' end, every base follows the letter of its sugar. An asterisk marks phosphorothioate; unmarked linkages are phosphodiester. Other units and linkages are bracketed, terminal groups are in braces. A string of capitals states the bases alone. e = 2'-O-(2-methoxyethyl) (MOE); [5mC] = 5-methylcytosine; d = 2'-deoxy (DNA)

Legend:
Type in all cases: cell-based
[1] = system: human Factor 7 mRNA; assay: Antisense inhibition of human Factor 7 mRNA in HepB3 cells, lipofectin, 50 nM, real-time RT-PCR; details: HepB3 cells
Procedure, shortened: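 Seeding density was 4,000 cells per well. Following roughly 24 hours of oligonucleotide treatment, RNA was extracted and Factor 7 message quantified using the RTS 2927 primer probe set. Levels were corrected for RIBOGREEN® total RNA and expressed against untreated controls.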

[2] = system: human Factor 7 mRNA; assay: Dose-dependent antisense inhibition of human Factor 7 in HepB3 cells, transfection with lipofectin; details: lipofectin, HepB3 cells, 16 hours
Procedure, shortened: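 HepB3 cells (4,000/well) lipofectin-transfected with antisense oligonucleotide at 3.125 or 6.25 up to 100 nM for ~16 h. Factor 7 mRNA measured by real-time RT-PCR with primer probe set RTS 2927, adjusted to RIBOGREEN total RNA; expressed as percent inhibition versus untreated control cells.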

[3] = system: human Factor 7 mRNA; assay: Dose-dependent antisense inhibition of human Factor 7 in HepB3 cells, transfection with electroporation
Procedure: (§1) The gapmers were also transfected via electroporation and their dose-dependent inhibition of human Factor 7 mRNA was measured. Cells were plated at a density of 20,000 cells per well and transfected via electroporation with 3.125 μM, 6.25 μM, 12.5 μM, 25 μM, 50 μM, and 100 μM concentrations of antisense oligonucleotide, as specified in Table 15. After a treatment period of approximately 16 hours, RNA was isolated from the cells and Factor 7 mRNA levels were measured by quantitative real-time PCR. Human Factor 7 primer probe set RTS 2927 was used to measure mRNA levels. Factor 7 mRNA levels were adjusted according to total RNA content, as measured by RIBOGREEN®. Results are presented as percent inhibition of Factor 7, relative to untreated control cells.
as §1, with “Cells were” for “The gapmers were also transfected via electroporation and their dose-dependent inhibition of human Factor 7 mRNA was measured. Cells were”, “in Table 16. After a” for “in Table 15. After a”, “cells and human Factor 7” for “cells and Factor 7”

[4] = 3.125 μM, 16 hours (Example 7, Table 15)
[5] = 3.125 μM, 16 hours (Example 8, Table 16)
[6] = 6.25 μM, 16 hours (Example 7, Table 15)
[7] = 6.25 μM, 16 hours (Example 8, Table 16)
[8] = 12.5 μM, 16 hours (Example 7, Table 15)
[9] = 12.5 μM, 16 hours (Example 8, Table 16)
[10] = 25 μM, 16 hours (Example 7, Table 15)
[11] = 25 μM, 16 hours (Example 8, Table 16)
[12] = 50 μM, 16 hours (Example 7, Table 15)
[13] = 50 μM, 16 hours (Example 8, Table 16)
[14] = 100 μM, 16 hours (Example 7, Table 15)
[15] = 100 μM, 16 hours (Example 8, Table 16)
[16] = gapmers (5-10-5, 3-14-3, 2-13-5 MOE) targeted to nucleobases 4868 to 4899 of SEQ ID NO: 1
[17] = gapmers targeted to nucleobases 15188 to 15211 of SEQ ID NO: 1 (Table 13)
[18] = gapmers targeted to nucleobases 13760 to 13789 of SEQ ID NO: 1 (Table 10)

Row | Substance | percent inhibition of Factor 7 mRNA, relative to untreated control cells ([2]; 3.125 nM) | percent inhibition of Factor 7 mRNA, relative to untreated control cells ([2]; 12.5 nM) | percent inhibition of Factor 7 mRNA, relative to untreated control cells ([2]; 25 nM) | percent inhibition of Factor 7 mRNA, relative to untreated control cells ([2]; 50 nM) | percent inhibition of Factor 7 mRNA, relative to untreated control cells ([2]; 100 nM) | percent inhibition of Factor 7 mRNA, relative to untreated control cells [2] | percent inhibition of Factor 7 mRNA, relative to untreated control cells [3, 4] | percent inhibition of Factor 7 mRNA, relative to untreated control cells [3, 5] | percent inhibition of Factor 7 mRNA, relative to untreated control cells [3, 6] | percent inhibition of Factor 7 mRNA, relative to untreated control cells [3, 7] | percent inhibition of Factor 7 mRNA, relative to untreated control cells [3, 8] | percent inhibition of Factor 7 mRNA, relative to untreated control cells [3, 9] | percent inhibition of Factor 7 mRNA, relative to untreated control cells [3, 10] | percent inhibition of Factor 7 mRNA, relative to untreated control cells [3, 11] | percent inhibition of Factor 7 mRNA, relative to untreated control cells [3, 12] | percent inhibition of Factor 7 mRNA, relative to untreated control cells [3, 13] | percent inhibition of Factor 7 mRNA, relative to untreated control cells [3, 14] | percent inhibition of Factor 7 mRNA, relative to untreated control cells [3, 15] | other results
1 | 422130 (antisense eG*e[5mC]*e[5mC]*eT*eG*dA*dG*dG*d[5mC]*d[5mC]*dA*dG*d[5mC]*dA*dG*eA*eT*e[5mC]*eA*e[5mC]) [compound 422130] | 4% | 34% | 59% | 77% | 85% | 15% | 28% | 14% | 29% | 24% | 59% | 61% | 61% | 68% | 73% | 82% | 86% | 88% | % Inhibition of human Factor 7 mRNA levels ([1]; gapmers targeted to nucleobases 14707 to 14732 of SEQ ID NO: 1 (Table 11)): 79%
2 | 422140 (antisense eG*eT*eT*e[5mC]*eT*dG*d[5mC]*dA*dG*dG*dA*dG*d[5mC]*dG*dG*e[5mC]*e[5mC]*eT*eA*eA) [compound 422140] | 18% | 49% | 64% | 74% | 74% | 35% | 29% | – | 34% | – | 51% | – | 64% | – | 69% | – | 77% | – | % Inhibition of human Factor 7 mRNA levels [1, 16]: 74%
3 | 422142 (antisense eG*eA*eG*eT*eT*d[5mC]*dT*dG*d[5mC]*dA*dG*dG*dA*dG*d[5mC]*eG*eG*e[5mC]*e[5mC]*eT) [compound 422142] | 16% | 51% | 66% | 72% | 68% | 34% | 26% | 34% | 47% | 47% | 63% | 62% | 67% | 67% | 77% | 65% | 78% | 65% | % Inhibition of human Factor 7 mRNA levels [1, 16]: 73%
4 | 422150 (antisense eG*e[5mC]*eA*dT*dG*dG*dT*dG*dA*dT*dG*d[5mC]*dT*dT*d[5mC]*dT*dG*eA*eA*eT) [compound 422150] | 9% | 38% | 59% | 79% | 87% | 23% | 17% | 0% | 20% | 31% | 40% | 53% | 54% | 67% | 68% | 77% | 83% | 86% | % Inhibition of human Factor 7 mRNA levels [1, 17]: 74%
5 | 422152 (antisense eA*eT*eG*d[5mC]*dA*dT*dG*dG*dT*dG*dA*dT*dG*d[5mC]*dT*dT*d[5mC]*eT*eG*eA) [compound 422152] | 18% | 47% | 67% | 83% | 89% | 29% | 14% | – | 22% | – | 32% | – | 44% | – | 65% | – | 76% | – | % Inhibition of human Factor 7 mRNA levels [1, 17]: 74%
6 | 422177 (antisense e[5mC]*e[5mC]*e[5mC]*dG*d[5mC]*d[5mC]*dG*dG*d[5mC]*dT*d[5mC]*dT*dG*d[5mC]*dT*d[5mC]*dA*eT*e[5mC]*e[5mC]) [compound 422177] | 12% | 44% | 64% | 81% | 88% | 24% | 3% | – | 10% | – | 29% | – | 21% | – | 31% | – | 63% | – | % Inhibition of human Factor 7 mRNA levels [1, 18]: 74%
7 | 422183 (antisense eG*e[5mC]*eG*d[5mC]*d[5mC]*dA*d[5mC]*d[5mC]*d[5mC]*dG*d[5mC]*d[5mC]*dG*dG*d[5mC]*dT*d[5mC]*eT*eG*e[5mC]) [compound 422183] | 28% | 56% | 78% | 84% | 88% | 37% | 16% | 2% | 28% | 3% | 37% | 24% | 44% | 50% | 59% | 64% | 71% | 71% | % Inhibition of human Factor 7 mRNA levels [1, 18]: 79%
